Values of other authors in patent publication US20050164987A1, “Melatonin combination therapy for improving sleep quality” (priority 2003, published 2005).
Like-named read-outs stand apart in the source and are kept apart here.

Columns and labels:
[1] = from the stomach
rats [2] = test system: rats
ML2 receptors = ML2 receptors (Homo sapiens, UniProt P16083)
physiological rhythms = conditions: 5 mg dose; simulated 9 h time lag
[3] = test system: mammalian melatonin receptors
[4] = in vivo
mice = conditions: reference agents; scores below 40 denote behavioral depression
rats [5] = test system: rats; remark: listed apart in the source
[6] = test system: healthy, elderly patients; conditions: oral administration
[7] = test system: lumbar dorsal horn interneurones and Renshaw cells; conditions: in vivo
[8] = test system: L-glutamate 1-carboxylase; conditions: concentrations of 10^−3 M
[9] = molecular target: GABA:2-oxo-glutarate aminotransferase (Homo sapiens, UniProt P80404); conditions: concentrations of 10^−3 M
Sequence of GABA:2-oxo-glutarate aminotransferase (P80404 29-500): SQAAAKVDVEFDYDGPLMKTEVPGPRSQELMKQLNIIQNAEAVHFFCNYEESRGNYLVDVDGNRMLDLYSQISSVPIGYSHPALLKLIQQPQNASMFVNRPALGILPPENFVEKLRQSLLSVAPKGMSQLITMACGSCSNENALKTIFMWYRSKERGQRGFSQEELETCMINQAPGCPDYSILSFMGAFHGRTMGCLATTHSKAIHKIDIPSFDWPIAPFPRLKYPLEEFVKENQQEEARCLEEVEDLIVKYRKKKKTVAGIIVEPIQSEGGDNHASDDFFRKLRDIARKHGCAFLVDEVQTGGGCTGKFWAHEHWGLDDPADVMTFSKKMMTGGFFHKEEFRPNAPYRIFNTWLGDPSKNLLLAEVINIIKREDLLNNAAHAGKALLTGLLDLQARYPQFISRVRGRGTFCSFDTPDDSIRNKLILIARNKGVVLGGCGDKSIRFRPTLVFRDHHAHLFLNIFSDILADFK

GABA uptake system = conditions: concentrations of 5×10^-4 M
sleep = conditions: post-nap
levels of melatonin = conditions: rats
human MT1 receptors = human MT1 receptors (Homo sapiens, UniProt P48039)
Sequence of human MT1 receptors (P48039 whole entry): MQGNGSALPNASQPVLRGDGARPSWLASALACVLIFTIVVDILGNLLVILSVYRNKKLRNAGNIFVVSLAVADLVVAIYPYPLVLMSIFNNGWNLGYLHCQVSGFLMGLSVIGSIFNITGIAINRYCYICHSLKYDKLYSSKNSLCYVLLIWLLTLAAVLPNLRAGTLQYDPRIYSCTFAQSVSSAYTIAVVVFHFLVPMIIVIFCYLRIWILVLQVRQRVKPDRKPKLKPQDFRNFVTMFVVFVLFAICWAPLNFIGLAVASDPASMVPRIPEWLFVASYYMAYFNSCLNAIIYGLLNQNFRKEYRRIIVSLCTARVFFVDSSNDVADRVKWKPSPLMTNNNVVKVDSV

[10] = test system: other melatonin receptors
MT-3 melatonin sites = conditions: hamster brain
[11] = test system: calcium-dependent release of dopamine from rabbit retina; conditions: picomolar concentrations
[12] = test system: calcium-dependent release of dopamine from chicken retina; conditions: picomolar concentrations
[13] = not given; remark: listed apart in the source
[14] = molecular target: T1, brain omega-1 receptor located on alpha subunit of the GABAA/chloride ion channel receptor complex (Homo sapiens, UniProt P14867+P18507)
T1 construct: host or cells: brain
T1 sequence (P14867 28-456): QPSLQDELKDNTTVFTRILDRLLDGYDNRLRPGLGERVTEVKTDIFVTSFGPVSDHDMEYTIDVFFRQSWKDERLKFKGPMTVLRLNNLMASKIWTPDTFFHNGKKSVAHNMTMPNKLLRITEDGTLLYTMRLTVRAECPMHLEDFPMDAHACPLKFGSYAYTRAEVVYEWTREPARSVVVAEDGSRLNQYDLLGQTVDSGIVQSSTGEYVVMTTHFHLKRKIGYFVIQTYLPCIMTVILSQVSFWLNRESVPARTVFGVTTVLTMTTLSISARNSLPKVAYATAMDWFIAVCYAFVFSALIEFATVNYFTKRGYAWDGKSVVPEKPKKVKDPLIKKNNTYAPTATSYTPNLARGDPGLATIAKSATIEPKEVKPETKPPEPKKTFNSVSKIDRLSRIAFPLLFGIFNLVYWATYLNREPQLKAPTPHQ
T1 sequence (P18507 40-475): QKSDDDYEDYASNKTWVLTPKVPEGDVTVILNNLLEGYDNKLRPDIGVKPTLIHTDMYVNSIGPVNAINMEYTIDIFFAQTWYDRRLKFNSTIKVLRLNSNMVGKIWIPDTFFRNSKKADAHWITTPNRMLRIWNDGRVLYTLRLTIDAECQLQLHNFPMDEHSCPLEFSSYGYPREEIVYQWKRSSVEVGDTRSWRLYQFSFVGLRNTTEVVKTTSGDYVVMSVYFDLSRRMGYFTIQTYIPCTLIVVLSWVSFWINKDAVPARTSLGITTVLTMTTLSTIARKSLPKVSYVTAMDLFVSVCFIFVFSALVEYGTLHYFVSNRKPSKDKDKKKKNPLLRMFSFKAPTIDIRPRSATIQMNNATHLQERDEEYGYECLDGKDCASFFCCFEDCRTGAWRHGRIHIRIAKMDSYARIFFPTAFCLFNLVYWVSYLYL
T1 sequence (P47870 25-512 partner limits assumed): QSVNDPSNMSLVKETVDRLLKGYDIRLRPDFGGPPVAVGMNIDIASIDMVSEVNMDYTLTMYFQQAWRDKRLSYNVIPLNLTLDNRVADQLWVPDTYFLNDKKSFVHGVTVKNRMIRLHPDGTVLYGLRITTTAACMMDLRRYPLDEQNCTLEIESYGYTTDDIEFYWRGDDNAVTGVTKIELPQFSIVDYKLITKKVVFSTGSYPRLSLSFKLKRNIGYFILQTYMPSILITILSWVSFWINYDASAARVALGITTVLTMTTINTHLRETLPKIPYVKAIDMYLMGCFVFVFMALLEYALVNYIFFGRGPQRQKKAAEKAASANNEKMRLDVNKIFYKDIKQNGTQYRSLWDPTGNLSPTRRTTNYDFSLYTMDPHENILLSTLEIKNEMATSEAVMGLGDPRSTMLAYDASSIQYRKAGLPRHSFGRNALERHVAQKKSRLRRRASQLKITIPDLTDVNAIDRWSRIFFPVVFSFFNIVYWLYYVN

[15] = not given; remark: listed apart in the source
[16] = test system: patients with major depressive disorder; conditions: 1, 5 and 25 mg once a day vs placebo, 8 weeks, over 700 patients
[17] = 10 mg or 64 mg dosages, compared to placebo

Sequence of ML2 receptors (P16083 whole entry): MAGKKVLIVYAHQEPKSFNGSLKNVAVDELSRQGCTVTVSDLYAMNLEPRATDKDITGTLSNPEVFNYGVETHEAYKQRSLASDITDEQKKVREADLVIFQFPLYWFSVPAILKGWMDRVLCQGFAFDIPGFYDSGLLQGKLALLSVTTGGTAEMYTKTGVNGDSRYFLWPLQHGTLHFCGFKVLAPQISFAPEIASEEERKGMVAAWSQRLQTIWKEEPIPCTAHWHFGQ

zopiclone
absorption [1]: well absorbed

CCC(=O)NCC[C@@H]1CCc2ccc3c(c21)CCO3 [TAK-375]
affinity for ML1 receptors (ML1 receptors): very high affinity | falling asleep (human subjects; [17]): fall asleep more quickly | remaining asleep (human subjects; [17]): remain asleep for a longer period of time | side effects (human subjects; human subjects): limited to only a few cases of headache, somnolence, fatigue, nausea, and dissiness | duration of sleep-promoting effects (rats [2]; compared with melatonin): last longer than those of melatonin | learning or memory (rats [2]; rat, in vivo): did not impair | potential for drug dependence (rats [2]; rats): did not demonstrate the potential for drug dependence | binding affinity for benzodiazepine receptors (benzodiazepine receptors): virtually no binding affinity | selectivity with respect to ML2 receptors (ML2 receptors): excellent selectivity | binding affinity for opiate receptors (opiate receptors): virtually no binding affinity | binding affinity for dopamine receptors (dopamine receptors): virtually no binding affinity

COc1cc2c([C@@H](C)CNC(C)=O)c[nH]c2cc1Cl [LY 156735]
readaptation speed of physiological rhythms (physiological rhythms): enhanced the readaptation speed

CC(=O)NCCc1c(Cc2ccccc2)[nH]c2ccccc12 [Luzindole, 2-benzyl-N-acetyltryptamine]
calcium-dependent release of [3H]dopamine ([3]; concentrations up to 10 μM): does not modify | spontaneous outflow of [3H]dopamine ([3]; concentrations up to 10 μM): does not modify | ability of melatonin to inhibit [3H]dopamine release ([3]; in a competitive fashion): antagonize

CC(=O)N(C)c1cccc(-c2ccnc3c(C(=O)c4cccs4)cnn23)c1 [Indiplon, N-methyl-N-(3-{3-[2-thienylcarbonyl]-pyrazolo-[1,5-a]-pyrimidin-7-yl}-phenyl)acetamide]
half-life [4]: approximately 1.3 hours

CN1C(=O)CN=C(c2ccccc2)c2cc(Cl)ccc21 [diazepam, 7-chloro-1,3-dihydro-1-methyl-5-phenyl-2H-1,4-benzodiazepin-2-one]
ED100 (mice): 50 mg/kg

COc1ccc2[nH]cc(CCNc3ccc([N+](=O)[O-])cc3[N+](=O)[O-])c2c1 [ML-23, N-2,4-dinitrophenyl-5-methoxy-tryptamine]
development of severe motor impairment (rats [5]): prevented

Oc1noc2c1CCNC2 [gaboxadol, 4,5,6,7-tetrahydroisoxazolo[5,4-c]pyridin-3-ol]
intensity of non-REM sleep [6]: increase | sleep consolidation [6]: increase | effect of bicuculline methochloride (BMC) on the inhibitory action on central neurones [7]: reversibly antagonized | interaction with L-glutamate 1-carboxylase [8]: did not interact | interaction with GABA:2-oxo-glutarate aminotransferase [9]: did not interact | interaction with the GABA uptake system (GABA uptake system): did not interact | deep sleep (sleep): promoting | falling asleep (sleep): facilitates falling asleep | total sleep time (sleep): increasing

COc1cccc2c1CC(NC(C)=O)CC2 (centres unmarked) [AH-001, 2-acetamido-8-methoxytetralin]
levels of melatonin (levels of melatonin): increase

CCC(=O)NCC1Cc2cccc(OC)c2C1 (centres unmarked) [GG-012, 4-methoxy-2-(methylenepropylamide)indan]
levels of melatonin (levels of melatonin): two-fold increase

Cc1ccc(-c2nc3ccc(C)cn3c2CC(=O)N(C)C)cc1 [zolpidem, N,N,6-trimethyl-2-(4-methylphenyl)-imidazo[1,2-s]pyridine-3-acetamide]
kinetics in the therapeutical dose range (between 5 and 10 mg in conventional forms): linear kinetics | bioavailability (following oral administration): 70% | duration of action (in vivo): up to 6 hours | time at which peak plasma concentration is reached (in vivo): 0.5 to 3 h | elimination half-life (mean): 2.4 h

CCCC(C)(COC(N)=O)COC(N)=O [meprobamate]
ED100 (mice): 300 mg/kg

CCC1(c2ccccc2)CCC(=O)NC1=O (centres unmarked) [glutethimide]
ED100 (mice): 300 mg/kg

CC(=O)NCCN1CCc2ccc3c(c21)CCO3 [GR196429, N-[2-[2,3,7,8-tetrahydro-1H-furo(2,3-g)indol-1-yl]ethyl]acetamide]
pKi (human MT1 receptors): 9.9

COC(=O)Nc1ccc2[nH]cc(CCNC(C)=O)c2c1 [5-MCA-NAT, 5-methoxy-carbonylamino-N-acetyltryptamine]
affinity or efficacy for other melatonin receptors [10]: low affinity or efficacy | affinity for MT-3 melatonin sites (MT-3 melatonin sites): high affinity

COc1ccc2[nH]cc(CCNC(C)=O)c2c1 [melatonin, N-[2-(5-Methoxy-1H-indol-3-yl)ethyl]acetamide]
calcium-dependent release of dopamine [11]: selectively inhibit | calcium-dependent release of dopamine [12]: selectively inhibit

O=C(CCCN1CCC(O)(c2ccc(Cl)cc2)CC1)c1ccc(F)cc1 [haloperidol]
ED100 (mice): 10 mg/kg

CP(=O)(O)CCCN [SKF 97541, 3-aminopropyl(methyl)phosphinic acid]
solubility in water and dilute aqueous base [13]: readily soluble

CCN(C(C)=O)c1cccc(-c2ccnc3c(C#N)cnn23)c1 [Zaleplon, N-[3-(3-cyanopyrazolo[1,5-a]pyrimidin-7-yl)phenyl]-N-ethylacetamide]
binding to brain omega-1 receptor [14]: binds selectively | time of peak plasma concentrations ([15]; following oral administration): 1 h | bioavailability ([15]; oral, substantial presystemic metabolism): 30%

CCCC(C)C1(CC)C(=O)NC(=O)NC1=O (centres unmarked) [pentobarbital]
ED100 (mice): 100 mg/kg

COc1ccc2cccc(CCNC(C)=O)c2c1 [agomelatine]
optimal dosage [16]: 25 mg

COC(=O)[C@H]1[C@H]2C[C@@H]3c4[nH]c5cc(OC)ccc5c4CCN3C[C@H]2C[C@@H](OC(=O)c2cc(OC)c(OC)c(OC)c2)[C@@H]1OC [reserpine]
ED100 (mice): 50 mg/kg
